Assay results: patent US20220310273A1, “SYSTEM FOR EVALUATING SENSITIVITY TO ANTI-CANCER AGENT AND A COMPUTER READABLE MEDIUM STORING PROGRAMS EXECUTING AN EVALUATING METHOD” (MBD Co., Ltd., priority 2021, published 2022)

System: cancer cells of biological individuals diagnosed with breast cancer
Test: evaluation of sensitivity to doxorubicin (DOX) in patient tissues, using cell colony growth rate and IC50 value
Conditions: patient tissue #2 (breast cancer)

In the case of `COc1cccc2c1C(=O)c1c(O)c3c(c(O)c1C2=O)C[C@@](O)(C(=O)CO)C[C@@H]3O[C@H]1C[C@H](N)[C@H](O)[C@H](C)O1` [doxorubicin], the IC50 value is reported as “low”.
